In patent US10556865B2, “Synergistic herbicidal composition containing certain pyridine or pyrimidine carboxylic acids and certain cereal and rice herbicides” (Dow AgroSciences, LLC, priority 2007, dated 2020):
Where two headings read alike, the source gives them in different places.

Columns and labels:
Format in all cases: in vivo
[1] = test system: chickweed (Stellaria media L; STEME); test: Postemergence herbicidal activity of mixtures in cereal crops (greenhouse, visual injury); settings: for pest or weed control at 140 g/ha / pest or weed control at 8.75 g/ha / pest or weed control at 17.5 g/ha / pest or weed control at 35 g/ha / pest or weed control at 70 g/ha: Stellaria media, post-emergence, read-out: STEME Ob
Method in brief: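 Plants grown in greenhouse (~14 h photoperiod, ~18 °C day/17 °C night) to 2nd–3rd true leaf, then sprayed with Compound A or B (methyl ester, TEA or K salt) and a second cereal herbicide alone or combined at 187 L/ha; solvent blank controls. Visual injury (0–100%) scored after 20–22 days; Colby expected values calculated.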

[2] = test system: Fimbristylis miliacea (L.) VAHL (FIMMI); test: Postemergence herbicidal mixtures for weed control in direct seeded rice (greenhouse, visual % injury); settings: FIMMI
[3] = test system: blackgrass (Alopecurus myosuroides L; ALOMY); test: Postemergence herbicidal activity of mixtures in cereal crops (greenhouse, visual injury 0-100 percent after 20-22 days)
Method in brief: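 Plants at second-third true leaf stage sprayed postemergence at 187 L/ha with compound and second cereal herbicide alone and combined; solvent blank controls. Visual injury scored 0-100% versus controls after 20-22 days; expected mixture effects by Colby's equation.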

O=C(O)c1c(Cl)ccc2cc(Cl)cnc12 [Quinclorac]
pest or weed control at 140 g/ha ([1]; 140 g/ha alone): 0%
% Injury Ob ([2]; 140 g/ha alone): 0%

COc1c(Cl)ccc(-c2cc(N)c(Cl)c(C(=O)O)n2)c1F [Compound A TEA, 4-amino-3-chloro-6-(4-chloro-2-fluoro-3-methoxyphenyl)pyridine-2-carboxylic acid]
ALOMY Ob ([3]; 35 g/ha, Table 14): 0%
ALOMY Ob ([3]; 35 g/ha, Table 16): 0%
ALOMY Ob ([3]; 35 g/ha, Table 18): 0%
ALOMY Ob ([3]; 35 g/ha, Table 19): 0%
ALOMY Ob ([3]; 70 g/ha, Table 14): 0%
ALOMY Ob ([3]; 70 g/ha, Table 16): 0%
ALOMY Ob ([3]; 70 g/ha, Table 18): 0%
ALOMY Ob ([3]; 70 g/ha, Table 19): 0%
ALOMY Ob ([3]; 140 g/ha, Table 14): 3%
ALOMY Ob ([3]; 140 g/ha, Table 16): 0%
ALOMY Ob ([3]; 140 g/ha, Table 18): 3%
ALOMY Ob ([3]; 140 g/ha, Table 19): 0%
STEME Ob ([1]; 70 g/ha alone): 93%
pest or weed control at 8.75 g/ha ([1]; 8.75 g/ha alone): 80%
pest or weed control at 8.75 g/ha ([1]; 8.75 g/ha): 80%
pest or weed control at 17.5 g/ha ([1]; 17.5 g/ha alone): 85%
pest or weed control at 17.5 g/ha ([1]; 17.5 g/ha): 85%
pest or weed control at 35 g/ha ([1]; 35 g/ha alone): 88%
pest or weed control at 70 g/ha ([1]; 70 g/ha alone): 93%
pest or weed control at 140 g/ha ([1]; 140 g/ha): 65%

COC(=O)c1nc(-c2ccc(Cl)c(OC)c2F)nc(N)c1Cl [Compound B Methyl, 6-amino-5-chloro-2-(4-chloro-2-fluoro-3-methoxyphenyl)pyrimidine-4-carboxylic acid methyl ester]
ALOMY Ob ([3]; 8.75 g/ha): 0%
ALOMY Ob ([3]; 8.75 g/ha, Table 20): 0%
ALOMY Ob ([3]; 8.75 g/ha, Table 22): 0%
ALOMY Ob ([3]; 17.5 g/ha): 10%
ALOMY Ob ([3]; 17.5 g/ha, Table 20): 10%
ALOMY Ob ([3]; 17.5 g/ha, Table 22): 10%
ALOMY Ob ([3]; 35 g/ha): 20%
ALOMY Ob ([3]; 35 g/ha, Table 20): 20%
ALOMY Ob ([3]; 35 g/ha, Table 22): 20%
ALOMY Ob ([3]; 70 g/ha): 40%
ALOMY Ob ([3]; 70 g/ha, Table 20): 40%
ALOMY Ob ([3]; 70 g/ha, Table 22): 40%

COC(=O)c1nc(-c2ccc(Cl)c(OC)c2F)cc(N)c1Cl [Compound A Methyl, 4-amino-3-chloro-6-(4-chloro-2-fluoro-3-methoxyphenyl)pyridine-2-carboxylic acid methyl ester]
ALOMY Ob ([3]; 17.5 g/ha, Table 1): 0%
ALOMY Ob ([3]; 17.5 g/ha, Table 2): 0%
ALOMY Ob ([3]; 17.5 g/ha, Table 4): 0%
ALOMY Ob ([3]; 17.5 g/ha, Table 5): 0%
ALOMY Ob ([3]; 17.5 g/ha, Table 6): 0%
ALOMY Ob ([3]; 35 g/ha, Table 1): 20%
ALOMY Ob ([3]; 35 g/ha, Table 2): 20%
ALOMY Ob ([3]; 35 g/ha, Table 3): 30%
ALOMY Ob ([3]; 35 g/ha, Table 4): 30%
ALOMY Ob ([3]; 35 g/ha, Table 5): 30%
ALOMY Ob ([3]; 35 g/ha, Table 6): 30%
ALOMY Ob ([3]; 35 g/ha, Table 7): 3%
ALOMY Ob ([3]; 70 g/ha, Table 1): 50%
ALOMY Ob ([3]; 70 g/ha, Table 2): 50%
ALOMY Ob ([3]; 70 g/ha, Table 3): 30%
ALOMY Ob ([3]; 70 g/ha, Table 4): 30%
ALOMY Ob ([3]; 70 g/ha, Table 5): 30%
ALOMY Ob ([3]; 70 g/ha, Table 6): 30%
ALOMY Ob ([3]; 70 g/ha, Table 7): 20%
ALOMY Ob ([3]; 140 g/ha, Table 7): 47%
pest or weed control at 17.5 g/ha ([1]; 17.5 g/ha): 78%
pest or weed control at 35 g/ha ([1]; 35 g/ha): 90%
pest or weed control at 70 g/ha ([1]; 70 g/ha): 100%
% Injury Ob ([2]; 4.38 g/ha alone): 20%
% Injury Ob ([2]; 8.75 g/ha alone): 40%
